Test: xn = mol fraction of the nth substance listed
Conditions: Liquid, Vibrating tube method

CCCCCCCCCC [decane] + CCCO
mass density [kg/m3]
Conditions | 323.15 K | 333.15 K
100 kPa, x2 = 0.1391 | – | 698
100 kPa, x2 = 0.1907 | – | 699.22
100 kPa, x2 = 0.3001 | – | 702.36
100 kPa, x2 = 0.4326 | – | 706.94
100 kPa, x2 = 0.6863 | – | 723.34
100 kPa, x2 = 0.8711 | – | 744.53
1000 kPa, x2 = 0.8711 | – | 745.47
1010 kPa, x2 = 0.3001 | – | 703.4
1010 kPa, x2 = 0.4326 | – | 708.03
1010 kPa, x2 = 0.6863 | – | 724.38
1020 kPa, x2 = 0.1391 | – | 699.13
1020 kPa, x2 = 0.1907 | – | 700.31
2000 kPa, x2 = 0.1391 | – | 700.15
2000 kPa, x2 = 0.1907 | – | 701.33
2000 kPa, x2 = 0.6863 | – | 725.39
2010 kPa, x2 = 0.4326 | – | 709.06
2020 kPa, x2 = 0.3001 | – | 704.44
2020 kPa, x2 = 0.8711 | – | 746.44
3000 kPa, x2 = 0.3001 | – | 705.44
3010 kPa, x2 = 0.1391 | – | 701.15
3010 kPa, x2 = 0.1907 | – | 702.33
3010 kPa, x2 = 0.4326 | – | 710.06
3010 kPa, x2 = 0.6863 | – | 726.41
3010 kPa, x2 = 0.8711 | – | 747.43
4000 kPa, x2 = 0.1391 | – | 702.13
4000 kPa, x2 = 0.1907 | – | 703.34
4010 kPa, x2 = 0.4326 | – | 711.1
4010 kPa, x2 = 0.8711 | – | 748.4
4020 kPa, x2 = 0.3001 | – | 706.45
4020 kPa, x2 = 0.6863 | – | 727.43
5000 kPa, x2 = 0.1907 | – | 704.33
5000 kPa, x2 = 0.3001 | – | 707.44
5010 kPa, x2 = 0.1391 | – | 703.13
5010 kPa, x2 = 0.6863 | – | 728.46
5020 kPa, x2 = 0.4326 | – | 712.1
5020 kPa, x2 = 0.8711 | – | 749.4
6000 kPa, x2 = 0.1391 | – | 704.1
6000 kPa, x2 = 0.1907 | – | 705.29
6000 kPa, x2 = 0.3001 | – | 708.43
6010 kPa, x2 = 0.4326 | – | 713.11
6010 kPa, x2 = 0.6863 | – | 729.45
6020 kPa, x2 = 0.8711 | – | 750.38
7000 kPa, x2 = 0.1391 | – | 705.07
7000 kPa, x2 = 0.4326 | – | 714.11
7000 kPa, x2 = 0.8711 | – | 751.38
7010 kPa, x2 = 0.3001 | – | 709.43
7020 kPa, x2 = 0.1907 | – | 706.27
7020 kPa, x2 = 0.6863 | – | 730.46
8000 kPa, x2 = 0.1391 | – | 706.06
8000 kPa, x2 = 0.4326 | – | 715.11
8010 kPa, x2 = 0.1907 | – | 707.25
8010 kPa, x2 = 0.6863 | – | 731.46
8020 kPa, x2 = 0.3001 | – | 710.42
8020 kPa, x2 = 0.8711 | – | 752.35
9010 kPa, x2 = 0.1391 | – | 707
9010 kPa, x2 = 0.1907 | – | 708.23
9010 kPa, x2 = 0.3001 | – | 711.39
9010 kPa, x2 = 0.4326 | – | 716.11
9010 kPa, x2 = 0.6863 | – | 732.47
9010 kPa, x2 = 0.8711 | – | 753.31
10000 kPa, x2 = 0.1391 | – | 707.95
10000 kPa, x2 = 0.4326 | 726.96 | 717.1
10010 kPa, x2 = 0.3001 | – | 712.39
10010 kPa, x2 = 0.6863 | 743.54 | 733.45
10020 kPa, x2 = 0.1907 | – | 709.15
10020 kPa, x2 = 0.8711 | 764.05 | 754.28
11000 kPa, x2 = 0.1391 | 717.57 | –
11000 kPa, x2 = 0.1907 | 719.05 | 710.11
11010 kPa, x2 = 0.1391 | – | 708.9
11010 kPa, x2 = 0.3001 | 723.06 | –
11010 kPa, x2 = 0.4326 | 727.85 | –
11010 kPa, x2 = 0.6863 | 744.43 | 734.43
11020 kPa, x2 = 0.3001 | – | 713.35
11020 kPa, x2 = 0.4326 | – | 718.06
11020 kPa, x2 = 0.8711 | 764.93 | 755.24
12000 kPa, x2 = 0.1907 | – | 711.08
12000 kPa, x2 = 0.3001 | 723.94 | –
12000 kPa, x2 = 0.4326 | – | 719.03
12010 kPa, x2 = 0.1391 | 718.43 | 709.82
12010 kPa, x2 = 0.6863 | 745.32 | 735.38
12020 kPa, x2 = 0.1907 | 719.94 | –
12020 kPa, x2 = 0.3001 | – | 714.31
12020 kPa, x2 = 0.4326 | 728.74 | –
12020 kPa, x2 = 0.8711 | 765.79 | 756.17
13000 kPa, x2 = 0.1391 | 719.28 | –
13000 kPa, x2 = 0.8711 | – | 757.09
13010 kPa, x2 = 0.1391 | – | 710.75
13010 kPa, x2 = 0.1907 | 720.8 | 712
13010 kPa, x2 = 0.3001 | 724.81 | –
13010 kPa, x2 = 0.4326 | – | 719.98
13010 kPa, x2 = 0.6863 | 746.21 | 736.35
13020 kPa, x2 = 0.3001 | – | 715.25
13020 kPa, x2 = 0.4326 | 729.62 | –
13020 kPa, x2 = 0.8711 | 766.65 | –
14000 kPa, x2 = 0.1907 | – | 712.92
14000 kPa, x2 = 0.3001 | 725.66 | –
14000 kPa, x2 = 0.4326 | 730.47 | –
14000 kPa, x2 = 0.6863 | 747.08 | –
14000 kPa, x2 = 0.8711 | – | 758.02
14010 kPa, x2 = 0.1391 | 720.12 | 711.65
14010 kPa, x2 = 0.3001 | – | 716.18
14020 kPa, x2 = 0.1907 | 721.64 | –
14020 kPa, x2 = 0.4326 | – | 720.92
14020 kPa, x2 = 0.6863 | – | 737.27
14020 kPa, x2 = 0.8711 | 767.51 | –
15000 kPa, x2 = 0.4326 | 731.33 | –
15000 kPa, x2 = 0.6863 | 747.92 | –
15000 kPa, x2 = 0.8711 | 768.36 | –
15010 kPa, x2 = 0.1391 | 720.95 | 712.53
15010 kPa, x2 = 0.1907 | – | 713.82
15010 kPa, x2 = 0.3001 | 726.5 | –
15010 kPa, x2 = 0.4326 | – | 721.82
15010 kPa, x2 = 0.6863 | – | 738.18
15010 kPa, x2 = 0.8711 | – | 758.93
15020 kPa, x2 = 0.1907 | 722.47 | –
15020 kPa, x2 = 0.3001 | – | 717.1
16000 kPa, x2 = 0.1907 | 723.29 | –
16000 kPa, x2 = 0.6863 | 748.78 | –
16000 kPa, x2 = 0.8711 | 769.18 | –
16010 kPa, x2 = 0.1391 | 721.76 | 713.4
16010 kPa, x2 = 0.1907 | – | 714.7
16010 kPa, x2 = 0.3001 | 727.33 | 717.99
16010 kPa, x2 = 0.4326 | 732.15 | 722.73
16010 kPa, x2 = 0.6863 | – | 739.1
16020 kPa, x2 = 0.8711 | – | 759.81
17000 kPa, x2 = 0.1391 | 722.56 | –
17000 kPa, x2 = 0.6863 | 749.59 | 740
17000 kPa, x2 = 0.8711 | – | 760.7
17010 kPa, x2 = 0.1907 | 724.12 | –
17010 kPa, x2 = 0.3001 | – | 718.88
17010 kPa, x2 = 0.4326 | 732.96 | 723.6
17010 kPa, x2 = 0.8711 | 770.01 | –
17020 kPa, x2 = 0.1391 | – | 714.27
17020 kPa, x2 = 0.1907 | – | 715.58
17020 kPa, x2 = 0.3001 | 728.15 | –
18000 kPa, x2 = 0.1391 | – | 715.12
18000 kPa, x2 = 0.1907 | – | 716.42
18000 kPa, x2 = 0.3001 | – | 719.72
18000 kPa, x2 = 0.4326 | – | 724.49
18000 kPa, x2 = 0.6863 | – | 740.88
18010 kPa, x2 = 0.1391 | 723.35 | –
18010 kPa, x2 = 0.3001 | 728.94 | –
18010 kPa, x2 = 0.4326 | 733.77 | –
18010 kPa, x2 = 0.6863 | 750.41 | –
18010 kPa, x2 = 0.8711 | 770.81 | –
18020 kPa, x2 = 0.1907 | 724.91 | –
18020 kPa, x2 = 0.8711 | – | 761.56
19000 kPa, x2 = 0.4326 | 734.57 | –
19010 kPa, x2 = 0.1391 | – | 715.93
19010 kPa, x2 = 0.1907 | 725.67 | 717.24
19010 kPa, x2 = 0.3001 | 729.72 | –
19010 kPa, x2 = 0.4326 | – | 725.32
19010 kPa, x2 = 0.6863 | 751.21 | 741.72
19010 kPa, x2 = 0.8711 | 771.61 | –
19020 kPa, x2 = 0.1391 | 724.11 | –
19020 kPa, x2 = 0.3001 | – | 720.57
19020 kPa, x2 = 0.8711 | – | 762.39
20000 kPa, x2 = 0.3001 | – | 721.37
20010 kPa, x2 = 0.1391 | 724.85 | –
20010 kPa, x2 = 0.1907 | 726.42 | 718.03
20010 kPa, x2 = 0.4326 | 735.37 | –
20010 kPa, x2 = 0.6863 | – | 742.58
20010 kPa, x2 = 0.8711 | 772.39 | 763.23
20020 kPa, x2 = 0.1391 | – | 716.72
20020 kPa, x2 = 0.3001 | 730.47 | –
20020 kPa, x2 = 0.4326 | – | 726.17
20020 kPa, x2 = 0.6863 | 752 | –

— the NIST ThermoML archive (doi:10.1021/acs.jced.8b00554)
